Data: US20240262878A1, “PHOTOACTIVATABLE GASDERMIN PROTEINS” (THE BOARD OF TRUSTEES OF THE UNIVERSITY OF ILLINOIS, priority 2021, published 2024)
Residue numbers refer to the chain shown, from its start. Names may count otherwise. “Also recorded” adds a separate entry of the source.

How the values were obtained:
Assay type in all cases: cell-based
Hela cells [1] = experiment: PhoDer activation after pretreatment with PI3K/PLC modulators, calcium flare dynamics
Method: (§1) Cell Culture. HeLa and RAW264.7 cells were maintained in Dulbecco's Modified Eagle Medium (DMEM) medium supplemented with 10% fetal bovine serum (FBS) and 1% penicillin and streptomycin. Cells were transfected at 50%-70% confluency using LIPOFECTAMINE® 2000 transfection reagent and incubated for 24 hours before imaging. Cells were never serum-starved. To examine endogenous inflammatory activation, RAW264.7 cells were treated with 100 ng/μL lipopolysaccharide (LPS, Invivogen) at the beginning of each experiment. Pretreatment to bias membrane composition by phosphatidylinositol 4,5-bisphosphate (PIP2) modifying enzymes was performed by incubating Hela cells in Hanks' Balanced Salt Solution (HBSS) buffer with inhibitors at 37° C. for 10 minutes to prior imaging at the following concentrations: for phosphoinositide 3-kinase (PI3K), cells were treated 10 μM wortmannin (Tocris); and for phospholipase C (PLC), cells were treated with 10 μM U73122 (Tocris). Cells were removed from the incubator and allowed to come to thermal equilibrium before being imaged in HBSS buffer at room temperature.
(§2) Fluorescence Imaging, Optogenetic Activation, and Post-Processing. All epifluorescence imaging was performed on a customized Nikon Ti2-E microscope equipped with individual control over excitation (EX) and emission (EM) filters, a fast LED light source (Lumencor) with fluid-cooled EMCCD (Andor), motorized stage, and examined under a 40× or 100× oil immersion objective under live focus tracking. For RFP, excitation (EX) and emission (EM) filter combinations (maxima/bandwidth in nm) are indicated. Cells were imaged at 12-15 second intervals. Emission intensities of individual cells were background-subtracted before normalization to zero time point, when optogenetic activation began. In the optical setup, optogenetic activation of PhoDer was performed using an EX filter at 440/20 nm for 20-30 ms across whole fields of view. This replicated the progression of endogenous activation of GSDMD observed in LPS-stimulated RAW264.7 cells. […] Where applicable, inhibitors were treated at the indicated concentration for 15 minutes prior to imaging.
Fluctuation Analysis and Quantification. To automate the objective isolation and quantitation of calcium flares, a post-processing algorithm was developed based on principles and normalization scheme detailed in work on photochromic stochastic optical fluctuation imaging (pcSOFI) (Dedecker et al. (2012) Proc. Natl. Acad. Sci. USA 109: 10909-10914). Briefly, fluctuation caused by the flares generate high autocorrelation signals in time-averaged series and yield high contrast at locales of the greatest ion flux. To truly reflect the local flux change, it is then normalized to remove dependence on the number of biosensors reporting at the given location using a scheme detailed previously (Mo et al. (2017) Nat. Methods 14 (4): 427-434). Using Matlab, rolling-window mean and rolling-window autocorrelation values were calculated for each pixel over each entire fluorescence time course that contained possible flares. A heuristic approach to window size was taken and a range of window sizes were examined using examples where calcium flares were visually distinct prior to setting the window size for all analyses. All such fluctuation images were then verified manually against intensity time course to ensure bone fide flare detection; particularly strong and non-overlapping flares were chosen and added to calculate kinetic parameters. […]

[2] = tested on: bone marrow-derived macrophages (BMDM); experiment: IL-1β cytokine release ELISA; conditions: short-term LPS stimulation (5 minutes), mouse BMDM
Method: Cytokine Release. LPS-stimulated, IL-1β cytokine release from bone-marrow monocyte-derived macrophages ([…] mice) was measured using the QUANTIKINE® ELISA kit (R&D Systems). Cells were seeded in 96-well plates and pre-treated for 10 minutes with medium, 10 μM U73122, or 10 μM wortmannin. LPS (100 ng/μL, Invivogen) was then added to the cells for 5 minutes and the cell-free supernatants were recovered and subjected to the ELISA kit according to the manufacturer's instructions. The concentration of the samples in 96-well plates was measured via absorbance at 450 nm using an Epoch Microplate Spectrophotometer (Biotek Instruments). The OD values in six technical repeats each from a total of three mice (n=18) were converted into the […] levels reported via a power law fit of a serial dilution calibration curve.

Hela cells [3] = experiment: Optogenetic activation of PhoDer, membrane-targeted jRCaMP1b calcium flare imaging and fluctuation analysis; conditions: for pore opening/closing dynamics (automated flare quantification): PhoDer mutants in live Hela cells vs PhoDer; for calcium response of mutants at other putative lipid-binding sites: charge-altering mutations
Method: Cloning. Cloning and subcloning were performed using the DH5a strain of E. coli. All mammalian constructs were cloned into the pcDNA3.0 vector with a modified multiple cloning site. Plasmids were generated as follows. Gasdermin D gene was obtained from Addgene. A diffusible optogenetic GSDMD, referred to herein as “PhoDer” and set forth in SEQ ID NO: 33, was constructed according to the reported domains structure by ligating three fragments into the pcDNA3.0 vector in one reaction via Gibson Assembly (New England BioLabs). For each fragment, PCR was specifically designed to create appropriate complementation. The jRCaMP1b gene, encoding a sensitive red protein calcium indicator, was obtained from Addgene. Membrane targeted calcium indicator jRCaMP1b was constructed by ligating a PCR fragment of the calcium indicator into the restriction enzyme sites BamHI and EcoRI in a modified pcDNA3.0 vector carrying a 5′ fragment encoding the N-terminal Lyn kinase localization sequence.
as §1, §2
Fluctuation Analysis and Quantification. To automate the objective isolation and quantitation of calcium flares, a post-processing algorithm was developed based on principles and normalization scheme detailed in work on photochromic stochastic optical fluctuation imaging (pcSOFI) (Dedecker et al. (2012) Proc. Natl. Acad. Sci. USA 109: 10909-10914). Briefly, fluctuation caused by the flares generate high autocorrelation signals in time-averaged series and yield high contrast at locales of the greatest ion flux. To truly reflect the local flux change, it is then normalized to remove dependence on the number of biosensors reporting at the given location using a scheme detailed previously (Mo et al. (2017) Nat. Methods 14 (4): 427-434). […]

Molecule: COC[C@H]1OC(=O)c2coc3c2[C@@]1(C)C1=C(C3=O)[C@@H]2CCC(=O)[C@@]2(C)C[C@H]1OC(C)=O [wortmannin]
- spatial extent flares reached (Hela cells [1]; pretreatment 10 μM, n=27): 12 μm

Molecule: COc1ccc2c(c1)CC[C@@H]1[C@@H]2CC[C@]2(C)[C@@H](NCCCCCCN3C(=O)C=CC3=O)CC[C@@H]12 [U73122]
- pixel-wise calcium fluctuations, local pore activity per locale (Hela cells [1]; pretreated vs non-pretreated cells): highest activity per locale
- intracellular calcium progression after PhoDer activation (Hela cells [1]; pretreatment 10 μM): steep, cumulative rise in intracellular calcium
- IL-1β release [2]: enhanced

Molecule: 740 Y-P
- calcium flare occurrence / calcium response with PI3K/PLC activators (Hela cells [1]): failed to elicit meaningful differences
- IL-1β release [2]: failed to elicit meaningful differences

Molecule: Cc1cc(C)c(S(=O)(=O)Nc2cccc(C(F)(F)F)c2)c(C)c1 [m-3m3FBS]
- calcium flare occurrence / calcium response with PI3K/PLC activators (Hela cells [1]): inhibited flare occurrence for a short time
- IL-1β release [2]: did not limit LPS-stimulated IL-1β release

B1: m3: PhoDer mutant R42Q/K43Q (SEQ ID NO:36) (protein)
chain: MGSAFERVVRRVVQELDHGGEFIPVTSLQSSTGFQPYCLVVQQPSSSWFWKPRYKCVNLSIKDILEPDAAEPDVQRGRSFHFYDAMDGQIQGSVELAAPGQAKIAGGAAVSDSSSTSMNVYSLSVDPNTWQTLLHERHLRQPEHKVLQQLRSRGDNVYVVTEVLQTQKEVEVTRTHKREGSGRFSLPGATCLQGEGQGHLSQKKTVTIPSGSTLAFRVAQLVIDSDLDVLLFPDKKQRTFQPPATGHKRSTSEGAWPQLPSGLSMMRCLHNGGGSVIPDYFKQSFPEGYSWERSMTYEDGGICIATNDITMEGDSFINKIHFKGTNFPPNGPVMQKRTVGWEASTEKMYERDGVLKGDVKMKLLLKGGGHYRCDYRTTYKVKQKPVKLPDYHFVDHRIEILSHDKDYNKVKLYEHAVARNSTDSMDELYKGGSGGMVSKGEETITSVIKPDMKNKLRMEGNVNGHAFVIEGEGSGKPFEGIQTIDLEVKEGAPLPFAYDILTTAFHYGNRVFTKYPRGGGVPAEGAFTEDFQGLRAEVETISKELELLDRELCQLLLEGLEGVLRDQLALRALEEALEQGQSLGPVEPLDGPAGAVLECLVLSSGMLVPELAIPVVYLLGALTMLSETQHKLLAEALESQTLLGPLELVGSLLEQSAPWQERSTMSLPPGLLGNSWGEGAPAWVLLDECGLELGEDTPHVCWEPQAQGRMCALYASLALLSGLSQEPH
- pore opening/closing dynamics (automated flare quantification) (Hela cells [3]): significantly reduced pore opening/closing dynamics; also recorded: significant changes in pore activity

B2: m5: PhoDer mutant R42Q/K43Q/K51Q/R53Q/K55Q (SEQ ID NO:38) (protein)
chain: B1 chain with K51Q, R53Q, K55Q
- pore opening/closing dynamics (automated flare quantification) (Hela cells [3]): significantly reduced pore opening/closing dynamics; also recorded: significant changes in pore activity

B3: m6: PhoDer mutant R42E/K43E/K51E/R53E/K55E (SEQ ID NO: 39) (protein)
chain: B1 chain with Q42E, Q43E, K51E, R53E, K55E
- pore opening/closing dynamics (automated flare quantification) (Hela cells [3]): significantly reduced pore opening/closing dynamics

B4: m4: PhoDer mutant R42E/K43E (SEQ ID NO:37) (protein)
chain: B1 chain with Q42E, Q43E
- pore opening/closing dynamics (automated flare quantification) (Hela cells [3]): significantly reduced pore opening/closing dynamics

B5: R7E/R10E/R11E: mutant at the well-conserved N-terminal region of GSDMD (protein, UniProt P57764 1-484, looked up, variant R7E R10E R11E)
Gasdermin-D: MGSAFEEVVEEVVQELDHGGEFIPVTSLQSSTGFQPYCLVVRKPSSSWFWKPRYKCVNLSIKDILEPDAAEPDVQRGRSFHFYDAMDGQIQGSVELAAPGQAKIAGGAAVSDSSSTSMNVYSLSVDPNTWQTLLHERHLRQPEHKVLQQLRSRGDNVYVVTEVLQTQKEVEVTRTHKREGSGRFSLPGATCLQGEGQGHLSQKKTVTIPSGSTLAFRVAQLVIDSDLDVLLFPDKKQRTFQPPATGHKRSTSEGAWPQLPSGLSMMRCLHNFLTDGVPAEGAFTEDFQGLRAEVETISKELELLDRELCQLLLEGLEGVLRDQLALRALEEALEQGQSLGPVEPLDGPAGAVLECLVLSSGMLVPELAIPVVYLLGALTMLSETQHKLLAEALESQTLLGPLELVGSLLEQSAPWQERSTMSLPPGLLGNSWGEGAPAWVLLDECGLELGEDTPHVCWEPQAQGRMCALYASLALLSGLSQEPH
- calcium response of mutants at other putative lipid-binding sites (Hela cells [3]): much-reduced calcium magnitude

B6: R137E: mutant at another helical region of GSDMD N-terminal domain (protein, UniProt P57764 1-484, looked up, variant R137E)
Gasdermin-D: B5 Gasdermin-D with E7R, E10R, E11R, R137E
- calcium response of mutants at other putative lipid-binding sites (Hela cells [3]): either encumbering or abrogating the calcium response

B7: R151E/R153E: mutant at another helical region of GSDMD N-terminal domain (protein, UniProt P57764 1-484, looked up, variant R151E R153E)
Gasdermin-D: B5 Gasdermin-D with E7R, E10R, E11R, R151E, R153E
- calcium response of mutants at other putative lipid-binding sites (Hela cells [3]): either encumbering or abrogating the calcium response
